In brackets after ≈: the same amount, converted by molar mass. Like-named read-outs stand apart in the source and are kept apart here. Values belong to the compound of their own block, whether it stands above or below them.
What was measured:
[1] = Drug cytotoxicity in Vero cells (microscopic, CPE-inhibition assay); type: cell-based; conditions: african green monkey, minimum drug concentration causing any cytotoxicity, read-out: MTC
Experimental: (§1) Mammalian cells were pregrown as monolayers in wells of COSTAR 96-well tissue culture plates using suitable cell culture media. Stock viruses were pretitered according to the method of Reed and Muench (Amer. J. Hyg. 27:493-497, 1938) and diluted in cell culture medium to yield 32 CCID50 (cell culture infectious dose, 50%) units per 0.1 ml. Antiviral assays were designed to test seven concentrations of each compound, from cytotoxic to noncytotoxic levels, in triplicate against each of the challenge viruses in microtiter plate wells containing suitable cell monolayers. To each of the replicate cell cultures were added 0.1 ml of the test drug solution and 0.1 ml of virus suspension. Cell controls containing medium alone, virus controls containing medium and virus, and drug cytotoxicity controls containing medium and each drug concentration were run simultaneously with the test samples assayed in each experiment. […] The cell monolayers were examined microscopically for virus-induced CPE and for drug cytotoxicity.
(§2) Antiviral activity was determined by calculating the degree of inhibition of virus-induced CPE in drug-treated, virus-infected cell cultures by means of a virus rating (VR). The VR is a standard weighted measurement of antiviral activity taking into account both the degree of CPE inhibition and drug cytotoxicity, and is determined by a modification of the method of Ehrlich et al. (Ann. N.Y. Acad. Sci. 130: 5-16, 1965) as described below. CPE was graded for each individual culture in each microtiter plate well according to the following scale:
(§3) The minimum inhibitory drug concentration which reduced the cytopathogenic effect (CPE) by 50% (MIC50) was calculated by using a regression analysis program for semilog curve fitting. A therapeutic index (TI) for each active compound for each susceptible virus was determined by dividing the minimum cytotoxic concentration of the test compound by the MIC50.

[2] = system: Varicella-Zoster Virus (VZV) clinical isolate DM625; test: VZV plaque reduction assay; type: cell-based; conditions: Human alphaherpesvirus 3, 144 h, VZV in HFF; for EC50: minimum concentration required to inhibit plaque formation by 50%, read-out: MIC50
Experimental: The compounds of the invention were evaluated for selective activity against varicella zoster virus (VCV) utilizing a plaque reduction assay procedure. The challenge virus was a clinical isolate designated DM625, obtained from Dr. Richard Whitley of the University of Alabama Hospitals, Birmingham, Ala. The virus had been passaged and titrated in cultures of human foreskin fibroblasts (HFF).
(§4) For the plaque reduction assay, sixth to twelfth passage human foreskin fibroblasts were seeded in wells of 12-well tissue culture plates and incubated at 37° C. in a humidified atmosphere containing 2% CO2 in air. Subconfluent HFF were rinsed with MEM and exposed to 0.5 ml/well of a suspension of VZV diluted in MEM+2% FBS for 2 hours at 37° C. Following the virus adsorption period, the inocula were removed and the infected cell layers were rinsed with MEM. Triplicate VZV-infected cell culture wells were treated with 1.0 ml of each concentration of test compound (in MEM+2% FBS). Six untreated virus-infected cell cultures and triplicate untreated uninfected cell cultures were fed with 1.0 ml of MEM+2% FBS to serve as controls. Wells containing uninfected HFF were treated with each concentration of test compound to monitor the test compound cytotoxicity. The 12-well plates were incubated at 37° C. in the CO2 incubator. At 48 hours post-virus infection (p.i.), fluids in all plate wells were replaced with fresh test compound and/or culture medium.
Six days p.i., the VZV plaques were counted (unstained, low magnification).The effect of each concentration of test compound on plaque formation was determined by comparing the mean number of plaques in the replicate test compound-treated cultures with the mean plaque counts of the untreated virus control cultures.
The MIC50 value is the minimum concentration of test Compound required to inhibit plaque formation by 50%.

[3] = MTT test compound cytotoxicity in human foreskin fibroblasts; type: cell-based; conditions: hff cells, read-out: MTT assay (Percent of control)
Experimental: as §4
The test compound cytotoxicity control cultures were examined microscopically for gross morphologic changes, then treated with MTT and 30% SDS. The blue color of the MTT formazan was measured spectrophotometrically at 570 nm. Test compound cytotoxicity was determined by comparing the absorbance (O.D.) of each test compound control with the mean O.D. of the cell control cultures and expressed as percent of control.

[4] = system: Herpes simplex type 1 (HSV-1) strain E-377; test: CPE-inhibition assay, herpes simplex type 1 strain E-377 in Vero cells; type: cell-based, herpes simplex virus type 1
Experimental: (§5) The challenge viruses were propagated and assayed in cells that were pregrown as monolayer cultures in plastic tissue culture flasks and 96-well plates, using cell culture media appropriate for the host cell cultures. The following viruses and host cell cultures were employed:
(§6) green monkey kidney (Vero)
(§7) On the day of use, a weighed sample of each compound to be evaluated was dissolved and diluted in serial 10^0.5 dilutions in the culture medium appropriate for each virus-host cell system.
as §1, §2
(§8) 4=100% of the cells affected by virus;
(§9) 3=75% of the cells affected by virus;
(§10) 2=50% of the cells affected by virus;
(§11) 1=25% of the cells affected by virus;
(§12) 0=No CPE; normal cell monolayer.
(§13) The VR was calculated as 0.1 of the sum of the numerical differences between the recorded CPE grade of each test well and that of the corresponding virus control in the culture plate. Numerical differences between the scores of test wells containing a drug concentration which was partially cytotoxic (p) and their corresponding virus controls were halved.
as §3

[5] = system: Herpes simplex type 2 (HSV-2) strain MS; test: CPE-inhibition assay, herpes simplex type 2 strain MS in Vero cells; type: cell-based, herpes simplex virus type 2
Experimental: as §5, §6, §7, §1, §2, §8, §9, §10, §11, §12, §13, §3

in vitro = type: cell-based, African green monkey; conditions: monkey, vero cells
Experimental: (§14) Vero cell monolayers were harvested by trypsinization. The number of viable cells per ml. was determined by staining an aliquot with trypan blue and counting in a hemocytometer. Cell densities were adjusted in growth medium to contain 4×10^5 cells/mi. 96-well sterile tissue culture plates were seeded with 100 μl/well of the adjusted cell suspensions, i.e., 4×10^4 cells/well. Seeded plates were incubated overnight at 37° C. with CO2.
(§15) After overnight incubation, monolayers were approximately confluent. The growth medium was removed and the monolayers in each cell were infected with 100 μl of virus diluted in maintenance medium to produce approximately 90% cytopathogenic effect (CPE) after 2 to 3 days incubation. The virus was allowed to adsorb for 1 hour at 37° C. with 4 to 6% CO2. Controls for cell growth were overlayed with virus-free maintenance medium. The maintenance medium containing residual virus was removed.
(§16) The test compounds were dissolved and/or diluted in maintenance medium to the concentration desired for testing and were added to the wells of the plate. Aliquots (100 μl ) of each concentration were added to wells in replicate (duplicate or triplicate). Controls for virus activity were overlayed with drug-free maintenance medium. Replicate wells containing only maintenance medium served as controls for background absorbance levels.
After incubation, the medium was removed from all the wells. 100 μl of neutral red solution was added to each well and the plate was incubated at 37° C. without CO2 for 2 hours. After the 2 hour incubation, the excess neutral red solution was removed. The plates were washed with 100 μl/well of PBS, pH 7.2 and then the PBS was removed.
The neutral red stain taken up by the viable cells was extracted by adding 100 μl/well of acidified methanol, pH 1.0. (The acidified methanol fixed the cells to the well). The plate was allowed to stand at room temperature for at least 15 minutes to allow for maximum extraction. The amount of neutral red stain extracted into the methanol was quantified by determining the absorbance at a wavelength of 540 nm. […]

[6] = system: Herpes Simplex Virus Type 1; test: Neutral red dye uptake assay for antiviral activity, HSV-1 in Vero cells; type: cell-based; conditions: Human alphaherpesvirus 1, HSV-1, Vero, concentration at which 50% CPE would be observed, read-out: MIC50
Experimental: as §14, §15, §16
After incubation, the medium was removed from all the wells. 100 μl of neutral red solution was added to each well and the plate was incubated at 37° C. without CO2 for 2 hours. After the 2 hour incubation, the excess neutral red solution was removed. […]
The neutral red stain taken up by the viable cells was extracted by adding 100 μl/well of acidified methanol, pH 1.0. […] The amount of neutral red stain extracted into the methanol was quantified by determining the absorbance at a wavelength of 540 nm.
The percent CPE in virus controls was determined by the following formula: [formula]
The percent CPE in cells infected with virus and treated with the test compound was determined by the following formula: [formula] […]

HSV-1 (E-377) = test: CPE inhibition assay (MTT), HSV-1 (E-377) in Vero cells; type: cell-based, herpes simplex virus type 1; conditions: Human alphaherpesvirus 1, inhibited CPE by 50%
Experimental: Vero cells were pregrown as monolayers in wells of COSTAR 96-well tissue culture plates using suitable cell culture media. Stock viruses were pretitered according to the method of Reed and Muench (Amer. J. Hyg. 27 493 (1938)) and diluted in cell culture medium to yield 32 CCID50 (cell culture infectious dose, 50%) units per 0.1 mL. Antiviral assays were designed to test six concentrations of each compound, from cytotoxic to noncytotoxic levels, in triplicate against each of the challenge viruses in microtiter plate wells containing cell monolayers. To each of the replicate cell cultures were added 0.1 mL of the test-compound solution and 0.1 mL of virus suspension. Two compounds were evaluated per plate. The following controls were included:
(1) Cell controls containing cells+medium;
(2) Untreated, virus-infected cell controls;
(3) Test-compound cytotoxicity controls containing uninfected, test-compound treated cells;
(4) Test-compound color controls-test-compound+medium (no cells); and
(5) Reagent (experiment medium) controls-medium only (no cells).
The covered plates were incubated at 37° C. in a humidified atmosphere containing 2% CO2. When cytopathogenic effect (CPE) in untreated virus control wells reached 100%, 20 μL of 3-(4,5-dimethyl-thiazol-2-yl)-2,5-diphenyl tetrazolium bromide (MTT) (dissolved in PBS at 5 mg/mL) was pipetted into each of the plate wells. The plates were incubated at 37° C. for six hours; then 40 μL of 30% SDS (in 0.02N HCl) was added to each well. After overnight incubation at 37° C., the blue color or the MTT formazan was measured spectrophotometrically at 570 nm. The optical density (OD) value of each culture is a function of the amount of formazan produced which is proportional to the number of viable cells. A computer program was utilized to calculate the percent (CPE) reciprocal of % CPE reduction) of the virus-infected wells and % cell viability of the uninfected test-compound control wells.
The IC50 value is the minimum test-compound concentration (μg/mL) that inhibited CPE by 50% calculated by using a regression analysis program for semilog curve fitting. The TC25 value is the minimum test-compound concentration (μg/mL) that reduced cell viability by 25%.

- EC50 [2]: 0.09 µg/mL (≈ 0.372 µM)
- IC50 ([4]; Human alphaherpesvirus 1, HSV-1 (E-377), minimum drug concentration that inhibited the CPE by 50%, read-out: ID50 (the source's name)): 0.2 µg/mL (≈ 0.826 µM)
- IC50 ([5]; Human alphaherpesvirus 2, HSV-2 (MS), minimum drug concentration that inhibited the CPE by 50%, read-out: ID50 (the source's name)): 44.3 µg/mL (≈ 183 µM)
SMILES: Cc1cn([C@@H]2O[C@H](CO)[C@H]2CO)c(=O)[nH]c1=O [Example 21, 1-([2'R, 3'R, 4'S]-3',4'-Bis(hydroxymethyl)-2'-oxetanyl)5-methyluracil]
- MCC ([1]; HSV-1 (E-377)): 320 µg/mL
- MCC ([1]; HSV-2 (MS)): > 320 µg/mL
- inhibition at 0.032 µM [2]: 16%
- inhibition at 0.1 µM [2]: 55%
- inhibition at 0.32 µM [2]: 97%
- inhibition at 1 µM [2]: 100%
- inhibition at 3.2 µM [2]: 100%
- viability at 0.1 µM [3]: 93%
- viability at 0.32 µM [3]: 84%
- viability at 1 µM [3]: 87%
- viability at 3.2 µM [3]: 87%
- VR (Virus Rating) ([4]; HSV-1 (E-377)): 5.9
- VR (Virus Rating) ([5]; HSV-2 (MS)): 2.9

SMILES: CCc1cn([C@@H]2O[C@H](CO)[C@H]2CO)c(=O)[nH]c1=O [Example 48, 1-([2'R, 3'R, 4'S]-3',4'-Bis(hydroxymethyl)-2'-oxetanyl)-5-ethyluracil]
- CC50 (in vitro): 350 µg/mL (≈ 1370 µM)
- EC50 [6]: 0.06 µg/mL (≈ 0.234 µM)

- IC50 (HSV-1 (E-377)): 0.74 µg/mL (≈ 2.56 µM)
- EC50 [2]: 0.004 µg/mL (≈ 0.0139 µM)
SMILES: O=c1[nH]c(=O)n([C@@H]2O[C@H](CO)[C@H]2CO)cc1C=CCl [Example 50, 1-([2'R, 3'R, 4'S]-3',4'-Bis(hydroxymethyl)-2'-oxetanyl)-5-(2-chloro-1-vinyl)uracil]
- inhibition at 0.0032 µM ([2]; 0.0032 μM): 7%
- inhibition at 0.01 µM ([2]; 0.01 μM): 45%
- inhibition at 0.032 µM [2]: 90%
- inhibition at 0.1 µM [2]: 99%
- inhibition at 0.32 µM [2]: 98%
- inhibition at 1 µM [2]: 99%
- viability at 0.1 µM [3]: 100%
- viability at 0.32 µM [3]: 100%
- viability at 1 µM [3]: 100%

- EC50 [2]: 0.045 µg/mL (≈ 0.169 µM)
SMILES: CC#Cc1cn([C@@H]2O[C@H](CO)[C@H]2CO)c(=O)[nH]c1=O [Example 68, 1-([2'R, 3'R, 4'S]-3',4'-Bis(hydroxymethyl)-2'-oxetanyl)-5-propynyluracil]
- inhibition at 0.032 µM [2]: 3%
- inhibition at 0.1 µM [2]: 38%
- inhibition at 0.32 µM [2]: 92%
- inhibition at 1 µM [2]: 99%
- inhibition at 3.2 µM [2]: 100%
- viability at 0.032 µM ([3]; 0.032 μM): 100%
- viability at 0.1 µM [3]: 100%
- viability at 0.32 µM [3]: 100%
- viability at 1 µM [3]: 98%
- viability at 3.2 µM [3]: 100%

Reference: patent US5420276A, “Analogs of oxetanyl purines and pyrimidines” (Abbott Laboratories, priority 1993, dated 1995)
